Some test systems named below: Malme-3M; U-251; NCI-H23; SNB-75; 786-0; SNB-19; A498; HCT-15; T47D; HOP-92; EKVX; ACHN; CCRF-CEM; SK-OV-3; TK-10; RXF 393; NCI-H460; OVCAR-3; MDA-N.
Holding throughout (assay): inhibition of tumour cell growth, NCI panel, 48 h

Results on 12 compounds are retold here after ChEMBL document CHEMBL1201862, “PubChem BioAssay data set” (2004).

Each structure is given as a SMILES string.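 Five compound concentrations were applied to cells in 96-well plates for 48 hours; endpoints were derived by simple linear interpolation of the resulting dose-response curve. GI50 is the concentration that inhibits growth by half.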 Active and inactive are the calls of the source. Cut-off read from the data, not from the text of the source: active = GI50 up to about 1.1 µM and inactive = higher.

For `COc1nc(OC)nc(-c2cccc(F)c2)n1`, the GI50 with Malme-3M is 15.2 µM (inactive); in the assay with U-251, 15.7 µM (inactive); in the assay with NCI-H23 it was 12 µM (inactive); with SNB-75, 21.2 µM (inactive); in the assay on 786-0 it was 19 µM (inactive); with SNB-19, 16.9 µM (inactive). Besides, the GI50 was 19.1 µM (inactive) in the assay with A498; 13.7 µM in the assay with HCT-15; 13.2 µM (inactive) with T47D; 6.41 µM (inactive) with HOP-92; 4.6 µM (inactive) with EKVX; 16.4 µM (inactive) with ACHN. Besides, the GI50 with CCRF-CEM is 9.2 µM (inactive); in the assay with SK-OV-3, 15.9 µM (inactive); in the assay on TK-10, 18.3 µM (inactive); in the assay on RXF 393, 15.9 µM (inactive); in the assay on NCI-H460, 14.9 µM (inactive); in the assay on OVCAR-3, 13.8 µM (inactive).

`Oc1ccc(Cl)cc1C1=NC(NCN2CCN(CNC3=NC(c4ccccc4)CC(c4cc(Cl)ccc4O)=N3)CC2)=NC(c2ccccc2)C1` (stereo not drawn): the GI50 in the assay with Malme-3M was 93.5 µM (inactive); in the assay with U-251, 35.4 µM (inactive); in the assay with NCI-H23 it was 46.6 µM (inactive); in the assay with SNB-75 it was 35.6 µM (inactive); in the assay with 786-0 it was 20.9 µM (inactive); in the assay with SNB-19, 41.6 µM (inactive). The GI50 in the assay on A498 was 47.8 µM (inactive); in the assay with HCT-15, 24.4 µM; in the assay on MDA-N, 50.2 µM (inactive); with HOP-92 it was 58.2 µM (inactive); with EKVX, 48.3 µM (inactive); in the assay with ACHN, 24.8 µM (inactive). Further, the GI50 in the assay with CCRF-CEM was 21.5 µM (inactive); in the assay with SK-OV-3 it was 66.7 µM (inactive); in the assay with TK-10 it was 48.8 µM (inactive); in the assay with RXF 393 it was 22 µM (inactive); in the assay with NCI-H460, 35.2 µM (inactive); with OVCAR-3 it was 28.8 µM (inactive).

On to `CC1(C)S[C@H](CN)N[C@H]1C(=O)OC(c1ccccc1)c1ccccc1`, for which the GI50 with Malme-3M was 31.4 µM (inactive); with U-251 it was 33 µM (inactive); in the assay on NCI-H23, 48.3 µM (inactive); in the assay with SNB-75 it was 84.3 µM (inactive); with 786-0 it was 48.5 µM (inactive); in the assay on A498, 20 µM (inactive). Further, the GI50 in the assay with HCT-15 is 36.1 µM; in the assay with T47D it was 27.9 µM (inactive); in the assay with HOP-92, 16.7 µM (inactive); in the assay on EKVX, 47.2 µM (inactive); in the assay on ACHN, 84.3 µM (inactive); in the assay with SK-OV-3, 78.3 µM (inactive). Besides, the GI50 was 61.7 µM (inactive) in the assay on TK-10 and 63.5 µM (inactive) with RXF 393.

On to `COc1ccc(N2C(=O)C3ON(C(C(N)=O)c4ccccc4)C(c4ccc(-c5ccccc5)cc4)C3C2=O)cc1` (stereo not drawn), for which the GI50 with Malme-3M was 31.8 µM (inactive); with U-251 it was > 50 µM (inactive); with NCI-H23 it was > 50 µM (inactive); in the assay on SNB-75, > 50 µM (inactive); with 786-0, > 50 µM (inactive); in the assay on SNB-19, > 50 µM (inactive). Further, the GI50 in the assay on A498 was > 50 µM (inactive); in the assay on HCT-15, more than 50 µM; in the assay on T47D, > 50 µM (inactive); in the assay with EKVX, > 50 µM (inactive); with ACHN, > 50 µM (inactive); with CCRF-CEM, 10.2 µM (inactive). Further, the GI50 in the assay with SK-OV-3, with TK-10, with RXF 393, in the assay with NCI-H460 and in the assay with OVCAR-3 was > 50 µM (inactive) throughout.

On to `O=C1CSC(c2ccc([N+](=O)[O-])cc2)N1c1nc(-c2ccc3c(c2)CCCC3)cs1` (stereo not drawn), for which the GI50 was > 100 µM (inactive) in the assay with Malme-3M; > 100 µM (inactive) in the assay with U-251; > 100 µM (inactive) with NCI-H23; 86.9 µM (inactive) in the assay with SNB-75; > 100 µM (inactive) in the assay with 786-0; > 100 µM (inactive) in the assay on SNB-19. The GI50 was > 100 µM (inactive) with A498; more than 100 µM in the assay with HCT-15; > 100 µM (inactive) in the assay with MDA-N; > 100 µM (inactive) in the assay on EKVX; > 100 µM (inactive) in the assay with ACHN; > 100 µM (inactive) in the assay on TK-10. Also, the GI50 in the assay on RXF 393, with NCI-H460 and with OVCAR-3 was > 100 µM (inactive) throughout.

For `CCN(CC)C(=S)Nc1ccc(-c2cc3ccc(O)cc3oc2=O)cc1`, the GI50 is 17 µM (inactive) in the assay with Malme-3M; 11.8 µM (inactive) in the assay with U-251; 29.7 µM (inactive) in the assay with NCI-H23; 16.4 µM (inactive) with SNB-75; 39.4 µM (inactive) in the assay with 786-0; 29.9 µM (inactive) in the assay on SNB-19. Also, the GI50 in the assay on A498 is 20.8 µM (inactive); in the assay on HCT-15, 19.7 µM; in the assay on MDA-N, 24.8 µM (inactive); with EKVX it was 32 µM (inactive); in the assay on ACHN it was 25.9 µM (inactive); in the assay on CCRF-CEM it was 16.4 µM (inactive). In addition, the GI50 with SK-OV-3 is 44.1 µM (inactive); in the assay with TK-10, 39 µM (inactive); with RXF 393, 30.2 µM (inactive); with NCI-H460, 31.4 µM (inactive); with OVCAR-3, 17.4 µM (inactive).

As for `CCOC(=O)C1=CCOc2cc(N(C)C)ccc21`, the GI50 with Malme-3M was > 100 µM (inactive); in the assay on U-251 it was > 100 µM (inactive); with NCI-H23, > 100 µM (inactive); with SNB-75 it was 43.4 µM (inactive); in the assay with 786-0, > 100 µM (inactive); in the assay on SNB-19, > 100 µM (inactive). The GI50 in the assay on A498 is > 100 µM (inactive); in the assay with HCT-15, more than 100 µM; in the assay on MDA-N, > 100 µM (inactive); in the assay on EKVX it was > 100 µM (inactive); in the assay on ACHN, > 100 µM (inactive); with CCRF-CEM, 21.6 µM (inactive). Besides, the GI50 is > 100 µM (inactive) in the assay on SK-OV-3; > 100 µM (inactive) in the assay on TK-10; > 100 µM (inactive) with RXF 393; > 100 µM (inactive) in the assay on NCI-H460; 21.7 µM (inactive) in the assay on OVCAR-3.

Take `COc1cc(NS(C)(=O)=O)ccc1NCc1c[nH]c2ccc3ncccc3c12`: the GI50 with Malme-3M is 20.5 µM (inactive); in the assay on U-251 it was 27.5 µM (inactive); with NCI-H23, 20.4 µM (inactive); in the assay with SNB-75, 14.3 µM (inactive); in the assay with 786-0, 15.6 µM (inactive); in the assay on SNB-19 it was 30.1 µM (inactive). Further, the GI50 was 23.1 µM (inactive) with A498; 21.7 µM in the assay with HCT-15; 10.9 µM (inactive) in the assay on T47D; 33 µM (inactive) in the assay with HOP-92; 20.2 µM (inactive) in the assay on EKVX; 21 µM (inactive) in the assay with ACHN. The GI50 in the assay with CCRF-CEM is 1.83 µM (inactive); in the assay with SK-OV-3, 16.5 µM (inactive); with TK-10, 28 µM (inactive); in the assay with RXF 393, 5.55 µM (inactive); with NCI-H460 it was 18.2 µM (inactive); in the assay on OVCAR-3 it was 23.2 µM (inactive).

`C1=CN2C[n+]3cccc(OCc4ccccc4)c3N=C2C(OCc2ccccc2)=C1`: the GI50 with Malme-3M is 12.3 µM (inactive); in the assay on U-251, 4.51 µM (inactive); in the assay on NCI-H23 it was 10.3 µM (inactive); in the assay on SNB-75, 20.1 µM (inactive); in the assay on 786-0, 15.3 µM (inactive); with SNB-19, 5.18 µM (inactive). For the same compound, the GI50 in the assay on A498 is 85.9 µM (inactive); with HCT-15, more than 100 µM; in the assay with T47D, 12.8 µM (inactive); in the assay with HOP-92, 12.5 µM (inactive); with EKVX it was 24.2 µM (inactive); in the assay with ACHN it was > 100 µM (inactive). In addition, the GI50 in the assay on SK-OV-3 is > 100 µM (inactive); in the assay with TK-10, 56 µM (inactive); in the assay with RXF 393 it was 44.9 µM (inactive); with NCI-H460, 32.6 µM (inactive); with OVCAR-3, 5.14 µM (inactive).

On to `N#CCCC(CC#N)N1CCN(C(CC#N)CCC#N)CC1` (stereo not drawn), for which the GI50 with Malme-3M, in the assay on U-251, with NCI-H23, with SNB-75, in the assay on 786-0 and with SNB-19 was > 100 µM (inactive) in each case. The GI50 with HCT-15 is more than 100 µM; with MDA-N it was > 100 µM (inactive); with EKVX, > 100 µM (inactive); in the assay with ACHN, > 100 µM (inactive); in the assay with CCRF-CEM it was > 100 µM (inactive); with SK-OV-3 it was > 100 µM (inactive). The GI50 in the assay on TK-10, with RXF 393, in the assay with NCI-H460 and in the assay with OVCAR-3 was > 100 µM (inactive) each time.

Consider `CCOC(OCC)[C@H](N)[C@@H](O)[C@@H](O)[C@H]1COC(C)(C)O1`, for which the GI50 with Malme-3M, in the assay with U-251, in the assay with NCI-H23, in the assay on SNB-75, with 786-0 and in the assay with SNB-19 was > 100 µM (inactive) throughout. Moreover, the GI50 in the assay with A498 was > 100 µM (inactive); with HCT-15, more than 100 µM; in the assay on MDA-N it was > 100 µM (inactive); in the assay on EKVX it was > 100 µM (inactive); with ACHN it was > 100 µM (inactive); in the assay with CCRF-CEM, > 100 µM (inactive). Besides, the GI50 in the assay with SK-OV-3, in the assay on TK-10 and in the assay on OVCAR-3 was > 100 µM (inactive) in each case.

Turning to `CC1=CC(=O)/C(=C/NC(=O)NN)C(=O)O1`, the GI50 in the assay with U-251 was > 100 µM (inactive); in the assay with NCI-H23, > 100 µM (inactive); in the assay with SNB-75, 45.4 µM (inactive); in the assay with 786-0, > 100 µM (inactive); with SNB-19, > 100 µM (inactive); with HCT-15 it was more than 100 µM. Besides, the GI50 is > 100 µM (inactive) with MDA-N; > 100 µM (inactive) with HOP-92; 34.1 µM (inactive) in the assay on EKVX; > 100 µM (inactive) with ACHN; > 100 µM (inactive) with CCRF-CEM; > 100 µM (inactive) with SK-OV-3. Also, the GI50 in the assay with TK-10, in the assay on RXF 393, in the assay with NCI-H460 and in the assay with OVCAR-3 was > 100 µM (inactive) each time.
